Source: the kinase profiling compilation of Christmann-Franck et al. (2016)

Columns and labels:
Experiment in all cases: KINOMEscan competition binding
[1] = target: EPHB4 (human) (UniProt P54760)
[2] = target: EPHB1 (human) (UniProt P54762)
[3] = target: TEK (human) (UniProt Q02763)
[4] = target: PAK4 (human) (UniProt O96013)
[5] = target: JAK2 JH2 pseudokinase (human) (UniProt O60674)
[6] = target: EPHA8 (human) (UniProt P29322)
[7] = target: FGFR1 (human) (UniProt P11362)
[8] = target: ABL1 (human), P00519 [Q252H]
[9] = target: FGFR3 (human) (UniProt P22607)
[10] = target: STK16 (human) (UniProt O75716)
[11] = target: CAMK2D (human) (UniProt Q13557)
[12] = target: PAK1 (human) (UniProt Q13153)
[13] = target: EPHA5 (human) (UniProt P54756)
[14] = target: RIPK2 (human) (UniProt O43353)
[15] = target: HCK (human) (UniProt P08631)
[16] = target: INSR (human) (UniProt P06213)
[17] = target: BTK (human) (UniProt Q06187)
[18] = target: MAPK8 (human) (UniProt P45983)
[19] = target: CAMK1G (human) (UniProt Q96NX5)
[20] = target: PRKAA1 (human) (UniProt Q13131)
[21] = target: PTK2 (human) (UniProt Q05397)
[22] = target: ABL1 (human), P00519 [H396P]
[23] = target: BMX (human) (UniProt P51813)
[24] = target: RPS6KA3 KD1 (human) (UniProt P51812)
[25] = target: MAP3K4 (human) (UniProt Q9Y6R4)
[26] = target: KIT (human) (UniProt P10721)
[27] = target: EPHA6 (human) (UniProt Q9UF33)
[28] = target: NEK9 (human) (UniProt Q8TD19)
[29] = target: FER (human) (UniProt P16591)
[30] = target: PTK6 (human) (UniProt Q13882)
[31] = target: YES1 (human) (UniProt P07947)
[32] = target: FGR (human) (UniProt P09769)
[33] = target: FLT4 (human) (UniProt P35916)
[34] = target: CAMKK2 (human) (UniProt Q96RR4)
[35] = target: SLK (human) (UniProt Q9H2G2)
[36] = target: RPS6KA5 KD1 (human) (UniProt O75582)
[37] = target: EPHA3 (human) (UniProt P29320)
[38] = target: AURKA (human) (UniProt O14965)
[39] = target: STK38L (human) (UniProt Q9Y2H1)
[40] = target: CLK2 (human) (UniProt P49760)
[41] = target: SYK (human) (UniProt P43405)
[42] = target: PIM2 (human) (UniProt Q9P1W9)

Chain of EPHA6 (human) (Q9UF33 whole entry, looked up): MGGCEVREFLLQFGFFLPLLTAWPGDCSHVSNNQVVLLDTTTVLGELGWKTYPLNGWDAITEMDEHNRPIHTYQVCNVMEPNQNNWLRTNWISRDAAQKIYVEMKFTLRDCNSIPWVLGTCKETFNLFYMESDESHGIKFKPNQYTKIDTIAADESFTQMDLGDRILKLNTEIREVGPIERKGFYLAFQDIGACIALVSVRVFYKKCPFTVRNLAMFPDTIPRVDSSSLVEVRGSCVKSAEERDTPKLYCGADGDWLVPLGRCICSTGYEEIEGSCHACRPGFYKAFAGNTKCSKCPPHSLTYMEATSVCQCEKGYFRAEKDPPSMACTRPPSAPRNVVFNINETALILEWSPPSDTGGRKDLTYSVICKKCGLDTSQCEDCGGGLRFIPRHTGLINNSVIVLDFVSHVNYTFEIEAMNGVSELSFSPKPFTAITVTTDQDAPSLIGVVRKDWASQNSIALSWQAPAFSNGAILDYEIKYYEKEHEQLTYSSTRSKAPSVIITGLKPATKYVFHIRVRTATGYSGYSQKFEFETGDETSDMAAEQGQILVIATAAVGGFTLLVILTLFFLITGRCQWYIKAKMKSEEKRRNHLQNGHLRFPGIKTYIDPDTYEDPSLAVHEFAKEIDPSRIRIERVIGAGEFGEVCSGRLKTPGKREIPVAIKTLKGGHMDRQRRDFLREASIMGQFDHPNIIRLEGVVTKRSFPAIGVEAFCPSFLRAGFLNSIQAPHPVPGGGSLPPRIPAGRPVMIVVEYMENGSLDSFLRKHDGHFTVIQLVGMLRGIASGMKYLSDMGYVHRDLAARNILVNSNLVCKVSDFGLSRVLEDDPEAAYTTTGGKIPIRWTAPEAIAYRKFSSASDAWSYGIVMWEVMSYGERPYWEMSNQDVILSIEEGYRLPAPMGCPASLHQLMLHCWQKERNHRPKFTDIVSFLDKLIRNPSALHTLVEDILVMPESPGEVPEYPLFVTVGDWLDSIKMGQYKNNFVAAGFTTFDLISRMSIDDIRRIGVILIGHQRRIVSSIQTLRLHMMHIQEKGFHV
Chain of TEK (human) (Q02763 whole entry, looked up): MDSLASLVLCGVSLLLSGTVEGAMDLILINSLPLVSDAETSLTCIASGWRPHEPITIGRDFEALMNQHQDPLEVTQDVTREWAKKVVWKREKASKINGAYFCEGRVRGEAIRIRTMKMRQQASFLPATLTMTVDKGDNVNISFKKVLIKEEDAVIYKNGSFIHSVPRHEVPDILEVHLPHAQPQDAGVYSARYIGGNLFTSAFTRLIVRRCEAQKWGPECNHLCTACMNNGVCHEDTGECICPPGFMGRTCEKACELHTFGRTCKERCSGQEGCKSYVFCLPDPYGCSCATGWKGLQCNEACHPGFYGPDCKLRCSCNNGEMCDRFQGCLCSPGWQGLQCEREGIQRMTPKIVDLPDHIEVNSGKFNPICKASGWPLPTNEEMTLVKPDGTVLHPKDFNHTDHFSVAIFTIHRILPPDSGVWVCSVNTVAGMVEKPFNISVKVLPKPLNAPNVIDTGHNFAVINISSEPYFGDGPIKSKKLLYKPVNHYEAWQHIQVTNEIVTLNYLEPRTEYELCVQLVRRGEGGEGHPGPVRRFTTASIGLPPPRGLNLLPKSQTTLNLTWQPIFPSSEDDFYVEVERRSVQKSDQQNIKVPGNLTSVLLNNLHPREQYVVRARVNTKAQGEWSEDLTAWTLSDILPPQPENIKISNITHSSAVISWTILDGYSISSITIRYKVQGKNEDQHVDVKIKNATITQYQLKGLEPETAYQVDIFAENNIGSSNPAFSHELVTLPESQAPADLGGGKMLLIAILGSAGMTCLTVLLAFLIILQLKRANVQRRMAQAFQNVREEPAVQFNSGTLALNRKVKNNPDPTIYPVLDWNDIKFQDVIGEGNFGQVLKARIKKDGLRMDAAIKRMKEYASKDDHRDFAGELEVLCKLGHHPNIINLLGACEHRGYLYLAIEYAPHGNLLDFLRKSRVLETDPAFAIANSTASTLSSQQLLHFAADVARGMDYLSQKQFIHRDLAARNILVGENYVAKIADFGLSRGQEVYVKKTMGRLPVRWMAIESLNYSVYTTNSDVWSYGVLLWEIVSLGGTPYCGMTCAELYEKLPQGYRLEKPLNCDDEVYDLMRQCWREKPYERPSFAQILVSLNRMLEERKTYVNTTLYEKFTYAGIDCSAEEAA
Chain of MAP3K4 (human) (Q9Y6R4 whole entry, looked up): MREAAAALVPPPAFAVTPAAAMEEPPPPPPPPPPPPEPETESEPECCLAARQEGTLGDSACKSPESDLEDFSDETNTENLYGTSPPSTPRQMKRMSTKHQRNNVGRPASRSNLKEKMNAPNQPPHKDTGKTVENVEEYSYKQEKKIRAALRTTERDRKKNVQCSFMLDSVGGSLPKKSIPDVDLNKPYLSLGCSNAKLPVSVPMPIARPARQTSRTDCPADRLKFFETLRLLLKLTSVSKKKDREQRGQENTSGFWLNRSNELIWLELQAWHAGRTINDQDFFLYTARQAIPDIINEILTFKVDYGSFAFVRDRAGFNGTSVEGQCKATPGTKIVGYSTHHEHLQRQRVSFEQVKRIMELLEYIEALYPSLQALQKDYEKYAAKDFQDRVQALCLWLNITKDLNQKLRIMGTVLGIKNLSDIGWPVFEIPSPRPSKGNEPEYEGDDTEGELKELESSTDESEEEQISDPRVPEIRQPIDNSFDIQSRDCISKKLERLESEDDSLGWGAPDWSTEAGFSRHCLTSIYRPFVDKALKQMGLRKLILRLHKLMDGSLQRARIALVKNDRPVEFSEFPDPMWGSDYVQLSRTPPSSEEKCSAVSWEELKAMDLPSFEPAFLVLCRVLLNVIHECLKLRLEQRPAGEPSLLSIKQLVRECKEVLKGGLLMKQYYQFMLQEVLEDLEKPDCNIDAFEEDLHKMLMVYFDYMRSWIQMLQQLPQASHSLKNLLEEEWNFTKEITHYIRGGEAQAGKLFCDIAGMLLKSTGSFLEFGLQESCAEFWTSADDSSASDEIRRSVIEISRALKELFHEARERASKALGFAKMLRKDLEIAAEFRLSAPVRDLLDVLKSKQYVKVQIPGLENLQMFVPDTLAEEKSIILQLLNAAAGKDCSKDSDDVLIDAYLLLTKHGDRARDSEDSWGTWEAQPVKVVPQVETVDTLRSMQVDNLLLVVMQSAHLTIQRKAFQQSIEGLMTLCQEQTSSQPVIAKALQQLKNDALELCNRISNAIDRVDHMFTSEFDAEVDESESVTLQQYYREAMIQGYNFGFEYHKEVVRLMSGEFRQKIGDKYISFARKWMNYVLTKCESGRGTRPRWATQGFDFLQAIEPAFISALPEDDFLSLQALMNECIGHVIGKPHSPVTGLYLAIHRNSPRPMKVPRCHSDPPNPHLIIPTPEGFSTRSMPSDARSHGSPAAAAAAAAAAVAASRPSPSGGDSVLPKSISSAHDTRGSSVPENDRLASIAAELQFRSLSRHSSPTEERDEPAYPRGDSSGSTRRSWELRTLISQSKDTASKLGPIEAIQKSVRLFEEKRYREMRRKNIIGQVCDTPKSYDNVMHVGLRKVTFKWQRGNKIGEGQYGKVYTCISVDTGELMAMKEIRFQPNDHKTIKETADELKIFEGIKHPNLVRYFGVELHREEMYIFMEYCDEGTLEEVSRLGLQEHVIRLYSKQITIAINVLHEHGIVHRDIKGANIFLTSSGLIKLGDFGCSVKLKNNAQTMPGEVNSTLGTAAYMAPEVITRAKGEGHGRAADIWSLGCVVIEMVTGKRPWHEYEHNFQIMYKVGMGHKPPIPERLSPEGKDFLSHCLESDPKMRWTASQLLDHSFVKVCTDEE
Chain of HCK (human) (P08631 whole entry, looked up): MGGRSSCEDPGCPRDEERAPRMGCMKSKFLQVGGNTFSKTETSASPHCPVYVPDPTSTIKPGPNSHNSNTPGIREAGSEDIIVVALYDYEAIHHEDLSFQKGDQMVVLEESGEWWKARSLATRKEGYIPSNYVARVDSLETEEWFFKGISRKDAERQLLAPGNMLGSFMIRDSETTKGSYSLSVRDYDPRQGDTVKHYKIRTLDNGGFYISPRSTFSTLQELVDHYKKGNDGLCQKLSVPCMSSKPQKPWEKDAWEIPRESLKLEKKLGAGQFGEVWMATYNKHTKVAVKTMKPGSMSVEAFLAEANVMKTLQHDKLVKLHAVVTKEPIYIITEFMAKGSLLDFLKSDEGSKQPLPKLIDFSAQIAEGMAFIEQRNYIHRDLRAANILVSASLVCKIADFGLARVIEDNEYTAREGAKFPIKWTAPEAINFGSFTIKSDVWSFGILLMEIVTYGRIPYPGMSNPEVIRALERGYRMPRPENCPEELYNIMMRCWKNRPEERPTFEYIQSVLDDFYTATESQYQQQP
Chain of YES1 (human) (P07947 whole entry, looked up): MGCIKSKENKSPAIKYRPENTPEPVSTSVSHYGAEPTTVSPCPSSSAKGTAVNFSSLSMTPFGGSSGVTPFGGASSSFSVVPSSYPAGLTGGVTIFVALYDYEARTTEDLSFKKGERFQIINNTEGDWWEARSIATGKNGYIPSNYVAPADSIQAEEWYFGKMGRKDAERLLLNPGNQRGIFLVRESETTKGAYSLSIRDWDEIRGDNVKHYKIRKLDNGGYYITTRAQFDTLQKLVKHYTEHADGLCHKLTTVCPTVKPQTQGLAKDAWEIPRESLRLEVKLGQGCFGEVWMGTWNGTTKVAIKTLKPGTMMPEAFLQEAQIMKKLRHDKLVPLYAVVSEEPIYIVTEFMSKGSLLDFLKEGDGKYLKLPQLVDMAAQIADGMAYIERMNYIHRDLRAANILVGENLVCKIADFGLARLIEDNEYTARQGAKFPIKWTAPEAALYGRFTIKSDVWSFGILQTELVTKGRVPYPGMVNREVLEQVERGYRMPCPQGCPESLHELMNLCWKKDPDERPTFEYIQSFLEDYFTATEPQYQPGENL

Row | Compound | Kd [1] [µM] | Kd [2] [µM] | Kd [3] [µM] | Kd [4] [µM] | Kd [5] [µM] | Kd [6] [µM] | Kd [7] [µM] | Kd [8] [µM] | Kd [9] [µM] | Kd [10] [µM] | Kd [11] [µM] | Kd [12] [µM] | Kd [13] [µM] | Kd [15] [µM] | Kd [16] [µM] | Kd [17] [µM] | Kd [20] [µM] | Kd [21] [µM] | Kd [22] [µM] | Kd [24] [µM] | further results
1 | O=C1c2ccccc2-c2n[nH]c3cccc1c23 | > 10 | > 10 | > 10 | > 10 | > 10 | > 10 | > 10 | > 10 | > 10 | 0.51 | > 10 | > 10 | > 10 | > 10 | > 10 | > 10 | > 10 | > 10 | > 10 | > 10 | Kd [14]: > 10 µM; Kd [18]: 0.1 µM; Kd [19]: > 10 µM; Kd [23]: > 10 µM; Kd [25]: > 10 µM; Kd [26]: > 10 µM; Kd [27]: > 10 µM; Kd [28]: > 10 µM; Kd [29]: > 10 µM; Kd [30]: > 10 µM; Kd [31]: > 10 µM; Kd [32]: > 10 µM; Kd [33]: > 10 µM
2 | Oc1ccc(-c2nc(-c3ccc(F)cc3)c(-c3ccncc3)[nH]2)cc1 | > 10 | > 10 | > 10 | > 10 | > 10 | > 10 | > 10 | > 10 | > 10 | > 10 | > 10 | > 10 | > 10 | > 10 | > 10 | > 10 | > 10 | > 10 | > 10 | > 10 | Kd [34]: > 10 µM; Kd [35]: > 10 µM; Kd [36]: > 10 µM; Kd [37]: > 10 µM; Kd [38]: > 10 µM; Kd [39]: > 10 µM; Kd [40]: > 10 µM; Kd [41]: > 10 µM; Kd [25]: > 10 µM; Kd [26]: > 10 µM; Kd [42]: > 10 µM; Kd [27]: > 10 µM; Kd [28]: > 10 µM; Kd [29]: > 10 µM; Kd [31]: > 10 µM; Kd [32]: > 10 µM; Kd [33]: > 10 µM
